Source: patent US6242235A, “Polymerase stabilization by polyethoxylated amine surfactants” (priority 1999, dated 2001)

Experiments:
Taq polymerase [1] = target: T1, Taq polymerase (Thermus aquaticus, UniProt P19821); experiment: Half-life of Taq polymerase activity at 95° C. in surfactant solutions (3H-TTP incorporation); format: biochemical; details: incubated at 95° C.; for estimated half-life of Taq polymerase: Example 2: 0.1% surfactant, control without surfactant less than 5 min; for Taq polymerase half life: Example 7: 0.005% surfactant, 2.5 U/100 μl, estimated graphically
Method: A 10× buffer was made with each of these surfactant solutions. The 10× buffer for each consisted of: 500 mM KCl, 100 mM Tris-HCl pH 9.0 (at 25° C.), 1% surfactant (made by a 1:10 dilution of the detergent solution described above into the buffer during formulation). As described in Example 1, the Taq polymerase used in these experiments was purified without exposure to any detergents. Each of these buffer solutions was used to formulate a Taq-surfactant solution as follows: […]
A control solution was made as indicated above, except that the 32 μl of 10× buffer without surfactant was used. The solutions were incubated at 95° C. and samples (10 μl) were removed and placed in a fresh tube, and kept on ice at 0, 5, 10, 30, 60, 90, and 120 min. The samples were then assayed for Taq polymerase activity.
Taq polymerase activity was determined by measuring the amount of tritiated deoxynucleotide base a sample of the enzyme could incorporate. The assay was performed as follows. Solutions of dATP, dCTP, dGTP and dTTP (Promega U120, U122, U121 and U123, respectively) were diluted to 2 mM final concentration (originally at 100 mM) using nanopure water. Tritiated nucleotide ^3 H-TTP was obtained from Amersham (TRK424, 250 μCi/250 μl). The template for incorporation was calf thymus DNA (Sigma, D-1501) dissolved in 10 mM Tris-HCl pH 7.3, 5 mM MgCl2 to a final concentration of 2.5 mg/ml. Prior to use, the DNA was treated with 1 μl of a 1:10 dilution of RQ1 DNAse (Promega M610) (dilution made using 10 mM Tris-HCl, 5 mM MgCl2) and incubated for 10 min at 37° C. followed by 30 min at 68° C. This was done to "activate" the DNA for incorporation. A 10× Taq assay buffer was made containing 500 mM Tris-HCl (pH 9.0 at 25° C.), 500 mM NaCl, and 100 mM MgCl2.
Time point samples (10 μl) were added to 40 μl of the reaction mix and then incubated at 74° C. for 10 min. After incubation, the solution was diluted with 500 μl of ice cold 10% TCA. The TCA solution was filtered through a GF/A filter. The tube was washed three times with 1 ml of 5% TCA and the wash was then filtered onto the same filter. The filter was then rinsed 3 times with 5% TCA and then rinsed with acetone. The filters were dried 10 min. with a heat lamp and then the radioactivity was counted. The percent of activity present at any time point was determined by dividing the net counts for the sample at that time point by the net counts of the 0 min sample for that enzyme solution and then multiplying by 100%. The percent activity of the solution was plotted versus time. The points were then connected by a smooth curve and the estimated half-life of the enzyme under the conditions chosen was estimated based on the point where the line crossed 50% activity.
In this example, the ability of ethoxylated amines to stabilize thermostable proteins at high temperatures was examined. Solutions of detergent-free Taq polymerase (2.5 U/100 μl of solution) containing 0.005% Tomah E-18-15, Tomah E-18-5, Tween 20, NP-40, and TRITON X-100 were produced as in Example 2. These solutions were incubated at 95° C. and samples were removed at 0, 10, 30, 60 and 120 min and analyzed as in Example 2. The half lives of the enzyme in the presence of these surfactants was estimated graphically. The solutions containing Tomah E-18-5, TRITON X-100 and NP-40 all had Taq polymerase half lives of about 8 min.

Taq polymerase [2] = target: T1, Taq polymerase; experiment: PCR based assay for Taq polymerase stabilization by detergents (1.5 kb amplification product on agarose gel); format: biochemical; details: 2 μl Taq polymerase (10 U/μl)
Method: This Example describes the development of a PCR based assay for polymerase stabilization by detergents (i.e., surfactants). Conditions were defined in which the polymerase was incapable of producing a detectable amplification product in the absence of detergent, but could produce detectable amplification in the presence of a stabilizing detergent, such as Tween 20.
The following reaction mixture was assembled:
pGEM 1 uc (Part # E1541) and 25 mM MgCl2 (Part # M1902) were obtained from Promega Corp, Madison Wis. The 10× Taq buffer formulation was: 500 mM KCl, 100 mM Tris-Cl (pH 9.0 at 25° C.). The 10× Taq buffer was made by dissolving KCl and Trizma in nanopure water and adjusting the pH with concentrated hydrochloric acid. Nanopure water was made by autoclaving deionized water treated by a NANOPURE water system. The 2 mM dNTP mix was made by mixing 100 mM stocks of dATP, dCTP, dGTP, and dTTP (Promega U120, U122, U121 and U123, respectively) with nanopure water to produce a solution containing a 2 mM concentration of each nucleotide. The DNA sequences of the primers used were […] (SEQ ID NO: 1) and […] (SEQ ID NO 2).
One hundred microliters of the reaction mixture were placed into a 0.2 ml tube and 50 μl placed in five additional tubes. […]
The reaction products were analyzed by agarose gel electrophoresis. […]

[3] = McCutcheon's Volume 1: Emulsifiers and Detergents North American Edition, 1996; cited from earlier work

T1 sequence (P19821 whole entry): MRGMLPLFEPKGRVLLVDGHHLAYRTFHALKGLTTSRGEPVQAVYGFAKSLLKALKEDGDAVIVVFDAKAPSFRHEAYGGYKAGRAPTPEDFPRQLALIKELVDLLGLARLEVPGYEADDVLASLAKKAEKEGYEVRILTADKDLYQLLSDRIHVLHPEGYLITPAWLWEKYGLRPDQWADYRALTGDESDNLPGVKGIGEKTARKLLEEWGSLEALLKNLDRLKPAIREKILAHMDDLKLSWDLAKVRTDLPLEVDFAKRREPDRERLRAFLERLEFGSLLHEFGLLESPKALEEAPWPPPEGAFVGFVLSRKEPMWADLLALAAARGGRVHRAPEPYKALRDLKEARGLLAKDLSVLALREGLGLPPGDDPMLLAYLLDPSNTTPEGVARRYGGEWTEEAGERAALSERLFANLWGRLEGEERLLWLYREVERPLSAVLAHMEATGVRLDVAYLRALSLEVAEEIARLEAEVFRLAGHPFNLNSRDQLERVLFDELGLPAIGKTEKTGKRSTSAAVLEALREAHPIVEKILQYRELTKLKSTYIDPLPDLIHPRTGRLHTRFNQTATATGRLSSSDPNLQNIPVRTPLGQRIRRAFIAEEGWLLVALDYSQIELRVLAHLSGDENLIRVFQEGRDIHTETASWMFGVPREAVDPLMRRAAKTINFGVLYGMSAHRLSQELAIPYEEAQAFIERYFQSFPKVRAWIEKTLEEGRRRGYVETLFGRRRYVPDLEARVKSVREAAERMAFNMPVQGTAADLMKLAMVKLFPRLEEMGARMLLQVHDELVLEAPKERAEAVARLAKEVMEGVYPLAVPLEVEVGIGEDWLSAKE

Compound	estimated half-life of Taq polymerase (Taq polymerase [1])	Taq polymerase half life (Taq polymerase [1])	further results
C[C@H](CCC(=O)NCCC[N+](C)(C)CCCS(=O)(=O)[O-])[C@H]1CC[C@H]2[C@@H]3[C@H](O)C[C@@H]4C[C@H](O)CC[C@]4(C)[C@H]3C[C@H](O)[C@]12C [Chaps]	approximately 5 min	–	–
C[C@H](CCC(=O)NCCC[N+](C)(C)CC(O)CS(=O)(=O)[O-])[C@H]1CC[C@H]2[C@@H]3[C@H](O)C[C@@H]4C[C@H](O)CC[C@]4(C)[C@H]3C[C@H](O)[C@]12C (some centres unmarked) [Chapso]	approximately 5 min	–	–
CCCCCCCCCC[N+](C)(C)CCCS(=O)(=O)[O-] [N-decyl-n,n-dimethyl-3-ammonium-1-propanesulfonate]	–	–	1.5 kb DNA band (Taq polymerase [2]; Example 3, second set: 5 μl of 10% surfactant in 95 μl mix, no band without surfactant): failed to produce a visible 1.5 kb DNA fragment; 1.5 kb DNA band (Taq polymerase [2]; Example 3: 1 μl of 10% surfactant in 99 μl mix, weaker but visible band without surfactant): band intermediate in intensity
TRITON X-100	approximately 40 min	about 8 min	HLB Index [3]: 13.5
ethoxylated alky phenol [NP-40]	–	about 8 min	–
